Data on 11 molecules can be found in patent publication US20120220562A1, “Anti-Viral Compounds” (ABBOTT LABAORATORIES, priority 2011, published 2012).

This experiment has as its system HCV 1b-Con1 replicon. The experiment in a line: HCV 1b-Con1 replicon assay in the presence of 5% FBS. In kind it is cell-based. The settings on record: Hepatitis C virus.

What is called EC50 is the concentration giving half of the maximal effect.

Where only a bound is given, the exact number is not on record here.

Take `COC(=O)N[C@H](C(=O)N1CCC[C@H]1c1nc2cc([C@H]3CC[C@H](c4ccc5[nH]c([C@@H]6CCCN6C(=O)[C@@H](NC(=O)OC)C6Cc7ccccc7C6)nc5c4)N3c3cc(F)c(N4CCC(c5ccccc5)CC4)c(F)c3)ccc2[nH]1)C1Cc2ccccc2C1` [Example 3.27, dimethyl ({(2R,5R)-1-[3,5-difluoro-4-(4-phenylpiperidin-1-yl)phenyl]pyrrolidine-2,5-diyl}bis{1H-benzimidazole-5,2-diyl(2S)pyrrolidine-2,1-diyl[(1S)-1-(2,3-dihydro-1H-inden-2-yl)-2-oxoethane-2,1-diyl]})biscarbamate]: the EC50 was less than 0.1 nM.

Regarding `COC(=O)N[C@H](C(=O)N1[C@H](c2nc3cc([C@H]4CC[C@H](c5ccc6[nH]c([C@@H]7C[C@@H]8CCC[C@@H]8N7C(=O)[C@@H](NC(=O)OC)C(C)C)nc6c5)N4c4cc(F)c(N5CCC(c6ccccc6)CC5)c(F)c4)ccc3[nH]2)C[C@@H]2CCC[C@@H]21)C(C)C` [Example 3.28, methyl {(2S)-1-[(2S,3aS,6aS)-2-{5-[(2R,5R)-1-[3,5-difluoro-4-(4-phenylpiperidin-1-yl)phenyl]-5-{2-[(2S,3aS,6aS)-1-{(2S)-2-[(methoxycarbonyl)amino]-3-methylbutanoyl}octahydrocyclopenta[b]pyrrol-2-yl]-1H-benzimidazol-5-yl}pyrrolidin-2-yl]-1H-benzimidazol-2-yl}hexahydrocyclopenta[b]pyrrol-1(2H)-yl]-3-methyl-1-oxobutan-2-yl}carbamate], the 50% effective concentration (EC50) was less than 0.1 nM.

On to `CCC(CC)C(NC(=O)OC)C(=O)N1CCC[C@H]1c1nc2cc([C@H]3CC[C@H](c4ccc5[nH]c([C@@H]6CCCN6C(=O)C(NC(=O)OC)C(CC)CC)nc5c4)N3c3cc(F)c(N4CCC(c5ccccc5)CC4)c(F)c3)ccc2[nH]1` (stereo partly drawn) [Example 3.29, methyl {1-[(2S)-2-{5-[(2R,5R)-1-[3,5-difluoro-4-(4-phenylpiperidin-1-yl)phenyl]-5-{2-[(2S)-1-{3-ethyl-2-[(methoxycarbonyl)amino]pentanoyl}pyrrolidin-2-yl]-1H-benzimidazol-5-yl}pyrrolidin-2-yl]-1H-benzimidazol-2-yl}pyrrolidin-1-yl]-3-ethyl-1-oxopentan-2-yl}carbamate], for which the EC50 is less than 0.1 nM.

For `COC(=O)N[C@H](C(=O)N1[C@H](c2nc3cc([C@H]4CC[C@H](c5ccc6[nH]c([C@@H]7C[C@@H]8CCC[C@@H]8N7C(=O)[C@@H](NC(=O)OC)C7CCCC7)nc6c5)N4c4cc(F)c(N5CCCCC5)c(F)c4)ccc3[nH]2)C[C@@H]2CCC[C@@H]21)C1CCCC1` [Example 3.30, dimethyl ({(2R,5R)-1-[3,5-difluoro-4-(piperidin-1-yl)phenyl]pyrrolidine-2,5-diyl}bis{1H-benzimidazole-5,2-diyl(2S,3aS,6aS)hexahydrocyclopenta[b]pyrrole-2,1(2H)-diyl[(1S)-1-cyclopentyl-2-oxoethane-2,1-diyl]})biscarbamate], the EC50 is less than 0.1 nM.

As for `O=C([C@@H]1CCCO1)N1CCC[C@H]1c1nc2cc([C@H]3CC[C@H](c4ccc5[nH]c([C@@H]6CCCN6C(=O)[C@@H]6CCCO6)nc5c4)N3c3cc(F)c(N4CCC(c5ccccc5)CC4)c(F)c3)ccc2[nH]1` [Example 3.31, ({(2R,5R)-1-[3,5-difluoro-4-(4-phenylpiperidin-1-yl)phenyl]pyrrolidine-2,5-diyl}bis[1H-benzimidazole-5,2-diyl(2S)pyrrolidine-2,1-diyl])bis[(2S)-tetrahydrofuran-2-ylmethanone]], the EC50 is less than 0.1 nM.

On to `COC(=O)N[C@H](C(=O)N1[C@H](c2nc3cc([C@H]4CC[C@H](c5ccc6[nH]c([C@@H]7C[C@@H]8CCC[C@@H]8N7C(=O)[C@@H](NC(=O)OC)C7CCOCC7)nc6c5)N4c4cc(F)c(N5CCCCC5)c(F)c4)ccc3[nH]2)C[C@@H]2CCC[C@@H]21)C1CCOCC1` [Example 3.32, dimethyl ({(2R,5R)-1-[3,5-difluoro-4-(piperidin-1-yl)phenyl]pyrrolidine-2,5-diyl}bis{1H-benzimidazole-5,2-diyl(2S,3aS,6aS)hexahydrocyclopenta[b]pyrrole-2,1(2H)-diyl[(1S)-2-oxo-1-(tetrahydro-2H-pyran-4-yl)ethane-2,1-diyl]})biscarbamate], for which the concentration for a half-maximal effect (EC50) is less than 0.1 nM.

Regarding `COC(=O)N[C@H](C(=O)N1[C@H](c2nc3cc([C@H]4CC[C@H](c5ccc6[nH]c([C@@H]7C[C@@H]8CCC[C@@H]8N7C(=O)[C@@H](NC(=O)OC)[C@@H](C)OC)nc6c5)N4c4cc(F)c(N5CCCCC5)c(F)c4)ccc3[nH]2)C[C@@H]2CCC[C@@H]21)[C@@H](C)OC` [Example 3.33], the EC50 is less than 0.1 nM.

Take `CCOC(=O)N[C@H](C(=O)N1CCC[C@H]1c1nc2cc([C@H]3CC[C@H](c4ccc5[nH]c([C@@H]6CCCN6C(=O)[C@@H](NC(=O)OCC)C(C)C)nc5c4)N3c3cc(F)c(N4CCC(c5ccccc5)CC4)c(F)c3)ccc2[nH]1)C(C)C` [Example 3.34, ethyl {(2S)-1-[(2S)-2-{5-[(2R,5R)-1-[3,5-difluoro-4-(4-phenylpiperidin-1-yl)phenyl]-5-{2-[(2S)-1-{(2S)-2-[(ethoxycarbonyl)amino]-3-methylbutanoyl}pyrrolidin-2-yl]-1H-benzimidazol-5-yl}pyrrolidin-2-yl]-1H-benzimidazol-2-yl}pyrrolidin-1-yl]-3-methyl-1-oxobutan-2-yl}carbamate]: the concentration giving a half-maximal response (EC50) was less than 0.1 nM.

For the molecule `COC(=O)N[C@H](C(=O)N1CCC[C@H]1c1nc2cc([C@H]3CC[C@H](c4cc5nc([C@@H]6CCCN6C(=O)[C@@H](NC(=O)OC)C6CCOCC6)[nH]c5cc4F)N3c3cc(F)c(N4CCCCC4)c(F)c3)c(F)cc2[nH]1)C1CCOCC1` [Example 3.35, dimethyl ({(2R,5R)-1-[3,5-difluoro-4-(piperidin-1-yl)phenyl]pyrrolidine-2,5-diyl}bis {(6-fluoro-1H-benzimidazole-5,2-diyl)(2S)pyrrolidine-2,1-diyl[(1S)-2-oxo-1-(tetrahydro-2H-pyran-4-yl)ethane-2,1-diyl]})biscarbamate], the half-maximal effective concentration (EC50) was less than 0.1 nM.

As for `COC(=O)N[C@H](C(=O)N1CCC[C@H]1c1nc2cc([C@H]3CC[C@H](c4cc5nc([C@@H]6CCCN6C(=O)[C@@H](NC(=O)OC)[C@@H](C)OC)[nH]c5cc4F)N3c3cc(F)c(N4CCCCC4)c(F)c3)c(F)cc2[nH]1)[C@@H](C)OC` [Example 3.36, methyl {(2S,3R)-1-[(2S)-2-{5-[(2R,5R)-1-[3,5-difluoro-4-(piperidin-1-yl)phenyl]-5-(6-fluoro-2-{(2S)-1-[N-(methoxycarbonyl)-O-methyl-L-threonyl]pyrrolidin-2-yl}-1H-benzimidazol-5-yl)pyrrolidin-2-yl]-6-fluoro-1H-benzimidazol-2-yl}pyrrolidin-1-yl]-3-methoxy-1-oxobutan-2-yl}carbamate], the EC50 was less than 0.1 nM.

Take `COC(=O)N[C@H](C(=O)N1[C@H](c2nc3cc([C@H]4CC[C@H](c5cc6nc([C@@H]7C[C@@H]8CCC[C@@H]8N7C(=O)[C@@H](NC(=O)OC)C(C)C)[nH]c6cc5F)N4c4cc(F)c(N5CCCCC5)c(F)c4)c(F)cc3[nH]2)C[C@@H]2CCC[C@@H]21)C(C)C` [Example 3.37, methyl {(2S)-1-[(2S,3aS,6aS)-2-{5-[(2R,5R)-1-[3,5-difluoro-4-(piperidin-1-yl)phenyl]-5-{6-fluoro-2-[(2S,3aS,6aS)-1-{(2S)-2-[(methoxycarbonyl)amino]-3-methylbutanoyl}octahydrocyclopenta[b]pyrrol-2-yl]-1H-benzimidazol-5-yl}pyrrolidin-2-yl]-6-fluoro-1H-benzimidazol-2-yl}hexahydrocyclopenta[b]pyrrol-1(2H)-yl]-3-methyl-1-oxobutan-2-yl}carbamate]: the EC50 is less than 0.1 nM.
